PMC5373622, “Screening for AMPA receptor auxiliary subunit specific modulators” (PLoS ONE, 2017)
Several values for one entry are separate records, joined by “and”; a condition that tells them apart may be missing. Equal entries are not always repeated. Where two headings read alike, the source gives them in different places.

Target: GluA2flip(R)-stargazin (A2R-stg TetON HEK293 cells) (Homo sapiens, UniProt P42262, Q607R)
Test: Voltage-sensitive dye (VSD) assay (primary screen, counter-screen, CRC) on A2R-stg cells
Conditions: for BaselineReturn: max 250-255 s minus min 0-5 s; for CMPDmaxmin: max-min 8-100 s; for CMPDmaxmin / CMPDSlope: only compound present; for Glumaxmin: max-min normalized value 301-380 s; for Glumaxmin / GluSlope: compound and glutamate present; for GluSlope: slope 310-315 s; for CMPDSlope: slope 11-18 s
[1] = 6.25e-5 M, per well, plate 58169DST7

Sequence of GluA2flip(R)-stargazin (A2R-stg TetON HEK293 cells) (P42262 25-883 isoform P42262-2 Q607R limits assumed): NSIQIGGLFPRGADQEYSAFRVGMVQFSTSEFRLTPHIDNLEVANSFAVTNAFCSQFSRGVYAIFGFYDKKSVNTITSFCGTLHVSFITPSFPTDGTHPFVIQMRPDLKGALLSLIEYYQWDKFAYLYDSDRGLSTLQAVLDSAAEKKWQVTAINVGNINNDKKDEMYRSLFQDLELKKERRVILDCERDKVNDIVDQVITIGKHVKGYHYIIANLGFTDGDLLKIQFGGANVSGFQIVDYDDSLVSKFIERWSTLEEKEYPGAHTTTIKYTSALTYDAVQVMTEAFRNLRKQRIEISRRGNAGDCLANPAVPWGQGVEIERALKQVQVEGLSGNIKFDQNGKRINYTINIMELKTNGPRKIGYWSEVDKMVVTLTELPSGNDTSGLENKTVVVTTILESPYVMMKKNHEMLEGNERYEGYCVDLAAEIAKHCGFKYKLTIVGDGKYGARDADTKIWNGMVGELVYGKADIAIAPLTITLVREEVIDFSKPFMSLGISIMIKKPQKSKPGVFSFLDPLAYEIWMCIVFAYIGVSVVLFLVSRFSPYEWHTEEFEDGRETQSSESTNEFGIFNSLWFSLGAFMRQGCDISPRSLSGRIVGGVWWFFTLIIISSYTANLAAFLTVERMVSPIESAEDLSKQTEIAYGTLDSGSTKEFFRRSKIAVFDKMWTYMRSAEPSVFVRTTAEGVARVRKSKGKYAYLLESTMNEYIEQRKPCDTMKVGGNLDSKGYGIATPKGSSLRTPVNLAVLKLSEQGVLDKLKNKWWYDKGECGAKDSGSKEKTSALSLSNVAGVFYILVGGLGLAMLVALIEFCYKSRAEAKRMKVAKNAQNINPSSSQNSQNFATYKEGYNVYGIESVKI
Sequence of GluA2flip(R)-stargazin (A2R-stg TetON HEK293 cells) (Q9Y698 whole entry partner): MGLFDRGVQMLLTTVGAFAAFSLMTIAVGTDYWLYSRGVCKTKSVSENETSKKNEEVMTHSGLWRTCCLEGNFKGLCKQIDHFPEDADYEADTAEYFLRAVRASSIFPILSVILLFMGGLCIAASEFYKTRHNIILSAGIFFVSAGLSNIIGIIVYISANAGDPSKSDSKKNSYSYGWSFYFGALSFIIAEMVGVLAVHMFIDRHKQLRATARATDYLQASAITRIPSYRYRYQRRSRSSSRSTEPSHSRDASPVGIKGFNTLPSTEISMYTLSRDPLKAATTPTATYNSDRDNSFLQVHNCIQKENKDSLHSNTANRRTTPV
Experimental: Cell lines used in the VSD assays were TetON HEK293 cells. […] We used GluA2flip(R) TetON HEK cell clone #4 that doxycycline (DOX) dependently expresses GluA2flip(R) (A2R). The A2R cells were used as the base cell line to derive cell lines that co-express auxiliary subunits.
Greiner 384-pp round-bottom plates containing glutamate for the second add were dispensed by hand using a multi-channel pipet at 5X final concentration. A2R-stg cells were plated in 384-well BD PureCoat amine-coated plates (Corning Life Sciences) at 16k cells/well in DMEM medium supplemented with 10% heat-inactivated FBS and 100U/mL PenStrep antibiotic. […] Cells were incubated overnight (O/N) and washed 4 times in HBSS containing 20 mM HEPES, pH 7.4, on an ELX405CW liquid aspirator and dispenser (BioTek). Buffer was left in the wells and an equal amount of 2X FLIPR dye solution was added and incubated on the cells at room temperature for 45 min. Fluorescence signal was collected at 1 Hz using Ex. 480±20 nm/Em. 540±40 nm on a Hamamatsu Functional Drug Screening System 6000 (FDSS). Baseline signal was collected for 10 seconds followed by addition of 10 μl of 5X compound for a final concentration of 10 μM.
Hits were selected from this initial screen using 4 different criteria, which we termed CMPDslope, CMPDmaxmin, GLUslope, and GLUmaxmin. […] GLUslope is the fitted slope of the increase in fluorescence within 10 sec after adding glutamate. GLUmaxmin is the difference in the minimum and maximum value in fluorescence signal reached in the 100 sec window after adding glutamate. Compounds were classified as hits if they differed by 3 standard deviations of the mean for each criterion. Tier 1 hits were classified as those that hit in the GLUslope, GLUmaxmin, and CMPDmaxmin windows. Tier 2 hits were classified as compounds that hit in the GLUslope window and either the GLUmaxmin or CMPDmaxmin window. Tier 3 hits were classified as those that hit in only the GLUslope or the GLUmaxmin window. Tier 4 hits were classified as compounds that hit only in the CMPD window, CMPDslope or CMPDmaxmin. Hit selection was further narrowed using the criterion that their signal must return to near baseline values before entering the glutamate add window.
VSD concentration response curves (CRCs): After the above counter-screens, compounds that remained positive were moved forward to collect complete CRCs for A2R-stg and A2R-C3 cell lines. This assay was carried out in the same way as the VSD screening assay except a 10-point concentration curve, from 40 μM to 10 nM, was plated in triplicate for each compound on a single 384-well plate. Data were summarized by plotting them as %max GLUslope against log [compound] that was fit to a four-parameter logistical model. %max GLUslope is defined as a normalized GLUslope expressed as a percentage of the mean maximum GLUslope, defined as 100, where background mean vehicle control (VHLslope) were subtracted from both values on a per plate basis. Thus, %max GLU slope = (GLUslope-mean VHLslope/mean maxGLUslope-mean VHLslope).

SMILES: O=C(c1ccc2c(c1)OCCO2)N1CCCCC1 [CX-546, 1-(1,4-benzodioxan-6-ylcarbonyl)piperidine]
- pctMAXslopeCMPD (CMPDSlope as percentage MAX) (3.125e-5 M, per well, plate 58169DST7): 26.044% and 27.2438% and 26.2272% and 24.5792% and 27.7844% and 28.3201%
- BaselineReturn (maximal normalized value 250-255 s minus minimal 0-5 s) [1]: 0.01812 and 0.0231 and 0.02286
- CMPDmaxmin (maximal - minimal normalized value, 8-100 s, only compound present) [1]: 0.02793 and 0.02317 and 0.02528
- pctMAXslope (GluSlope as percentage MAX) [1]: 40.7941% and 49.9185% and 35.6482%
- pctMAXslopeCMPD (CMPDSlope as percentage MAX) [1]: 27.4558% and 28.8276% and 28.6616%
- BaselineReturn (6.25e-5 M): 0.01973 and 0.018 and 0.01152
- CMPDmaxmin (6.25e-5 M): 0.02536 and 0.01826 and 0.01839
- Glumaxmin (6.25e-5 M): 0.2031 and 0.2196 and 0.1717
- GluSlope (6.25e-5 M): 6.2051e-6 and 9.036e-6 and 7.987e-6
- BaselineReturn (0.00025 M): 0.05169 and 0.04966 and 0.04304 and 0.05412 and 0.05858 and 0.04633
- CMPDmaxmin (0.00025 M): 0.05366 and 0.04763 and 0.04669 and 0.05717 and 0.05497 and 0.04716
- Glumaxmin (0.00025 M): 0.3546 and 0.3256 and 0.3581 and 0.3601 and 0.3987 and 0.3619
- CMPDSlope (0.00025 M): 2.511e-6 and 1.582e-6 and 1.531e-6 and 1.914e-6 and 1.992e-6 and 1.6067e-6
- GluSlope (0.00025 M): 1.516e-5 and 1.442e-5 and 1.434e-5 and 1.326e-5 and 1.8177e-5 and 1.566e-5
- BaselineReturn (0.0005 M): 0.1016 and 0.09236 and 0.09814 and 0.1005 and 0.08945 and 0.09494
- CMPDmaxmin (0.0005 M): 0.09292 and 0.08599 and 0.08883 and 0.08871 and 0.09266 and 0.08518
- Glumaxmin (0.0005 M): 0.4227 and 0.415 and 0.4148 and 0.4609 and 0.4831 and 0.4327
- CMPDSlope (0.0005 M): 3.674e-6 and 4.188e-6 and 3.738e-6 and 3.852e-6 and 5.683e-6 and 4.257e-6
- GluSlope (0.0005 M): 1.777e-5 and 1.508e-5 and 1.548e-5 and 1.731e-5 and 1.8778e-5 and 1.858e-5
- BaselineReturn (0.001 M): 0.1819 and 0.178 and 0.2248 and 0.2011 and 0.1897 and 0.1856
- CMPDmaxmin (0.001 M): 0.1715 and 0.1673 and 0.213 and 0.1892 and 0.174 and 0.1789
- Glumaxmin (0.001 M): 0.4573 and 0.4826 and 0.4107 and 0.4115 and 0.4861 and 0.4796
- CMPDSlope (0.001 M): 9.085e-6 and 8.904e-6 and 9.403e-6 and 8.729e-6 and 8.585e-6 and 8.384e-6
- GluSlope (0.001 M): 1.548e-5 and 1.672e-5 (2×) and 1.1033e-5 and 1.693e-5 and 1.578e-5
- activity at 250 µM (HEK293, read-out: AVE %MAXCMPDslope, 0.00025 M, average of wells): 30.3%
- activity at 500 µM (HEK293, read-out: AVE %MAXCMPDslope, 0.0005 M, average of wells): 34.5%
- activity at 1000 µM (HEK293, read-out: AVE %MAXCMPDslope, 0.001 M, average of wells): 42.6%
- activity at […] (HEK293, read-out: AVE %MAXCMPDslope, […], average of wells): 29.5%
- activity at 250 µM (HEK293, read-out: AVE %MAXslope, 0.00025 M, average of wells): 53.6%
- activity at 500 µM (HEK293, read-out: AVE %MAXslope, 0.0005 M, average of wells): 57.1%
- activity at 1000 µM (HEK293, read-out: AVE %MAXslope, 0.001 M, average of wells): 54.1%
- activity at […] (HEK293, read-out: AVE %MAXslope, […], average of wells): 47%
- activity at 250 µM (HEK293, read-out: pctMAX, 0.00025 M, Glumaxmin as percentage MAX (vhl and glutamate controls)): 30.3%
- activity at 500 µM (HEK293, read-out: pctMAX, 0.0005 M, Glumaxmin as percentage MAX (vhl and glutamate controls)): 42.2%
- activity at 1000 µM (HEK293, read-out: pctMAX, 0.001 M, Glumaxmin as percentage MAX (vhl and glutamate controls)): 48.3%
- activity at 250 µM (HEK293, read-out: pctMAXslope, 0.00025 M, GluSlope as percentage MAX): 53.6%
- activity at 500 µM (HEK293, read-out: pctMAXslope, 0.0005 M, GluSlope as percentage MAX): 58.2%
- activity at 1000 µM (HEK293, read-out: pctMAXslope, 0.001 M, GluSlope as percentage MAX): 54.2%
- activity at […] (HEK293, read-out: pctMAXslope, […], GluSlope as percentage MAX): 49.2%
- activity at 250 µM (HEK293, read-out: pctMAXslopeCMPD, 0.00025 M, CMPDSlope as percentage MAX): 31.5%
- activity at 500 µM (HEK293, read-out: pctMAXslopeCMPD, 0.0005 M, CMPDSlope as percentage MAX): 33.5%
- activity at 1000 µM (HEK293, read-out: pctMAXslopeCMPD, 0.001 M, CMPDSlope as percentage MAX): 43%
- activity at […] (HEK293, read-out: pctMAXslopeCMPD, […], CMPDSlope as percentage MAX): 28.5%
- concentrations giving a slight increase in fluorescence in the absence of glutamate (compound-only window): > 250 µM
